The values that follow come from US11447534B2, “Peptide complex with immunodulatory and anti-inflammatory function” (NATIONAL INSTITUTE OF IMMUNOLOGY, priority 2018, dated 2022).

Data set [1] has as its system RAW264.7 macrophages. Nature of the data set: Lactate dehydrogenase (LDH) assay in macrophages. The class given is cell-based, murine. The protocol: Effect of Abeta-Glu-OC (3 ng) mixture on macrophage integrity: To determine whether the mixture produced any toxicity lactate dehydrogenase (LDH) assay was performed. Briefly, the cells were incubated with the mixture under serum starved conditions for 1 hour followed by LDH assay. LDH was assayed using In vitro toxicology assay kit from Sigma-Aldrich, St. Louis, Mo., USA (cat. no.-TOX7) as per the manufacturer's directions. LDH assay substrate solution, LDH assay dye solution and 1×LDH assay cofactor were provided with the kit. […] To this LDH assay mixture was added and incubated at room temperature in the dark for 20-30 min. The reaction was terminated by the addition of 1/10 volume of 1N HCl. Absorption was taken 490 nm with the help of in a Tecan Microplate reader, Switzerland with Magellan™ software.

The test system of data set [2] is RAW264.7 macrophages. The data set is described as follows: qPCR of Cd74, Cd36 in serum starved macrophages. It is filed as cell-based, murine. The settings on record: unstimulated RAW264.7 macrophages, with respect to basal. (In general: Real-time PCR tracks product formation cycle by cycle.)
Data set [3] concerns CD36 scavenger receptor. Nature of the data set: Flow cytometry of cell surface CD36 in macrophages. The settings on record: 1 hour exposure, FACS. The class given is cell-based, murine. Here is the method:
To determine the immunomodulatory effect of A-O complex, serum starved macrophages were exposed to the complex. Macrophages (1×10^6 cells) were serum starved for 30 min after which cells were exposed to A-O complex. After 1 hour, cells were washed with 1×PBS (pH 7.4) and harvested using cell dissociation solution. Then the cells were suspended in ice cold staining buffer (100 μl) and centrifuged at 1000 rpm for 5 min at 4° C. The cells were resuspended in 100 μl ice cold staining buffer for 10 min at 2-8° C. and pellet resuspended in 50 μl staining media. To this 2 μl of Fc block or anti-mouse CD16/CD32 was added for 10 mins and washed with staining buffer. The cells were resuspended in 50 μl of staining buffer and incubated with fluorescent-tagged CD36 antibody (e-biosciences) for 25-30 min on ice. The excess stain was removed by washing and pelleting down using staining buffer thrice by spinning and removal of staining buffer. The cell suspension was fixed 1:1 ratio (staining buffer:fixative) and analysed within 48 h in ARIA3 DIVA software version 6.1. Further, expression of MHC-II, and CD-36, was also determined in the microglial cells via qPCR. […] Following amplification, fold changes in gene expression versus β-actin (reference) analysis was determined using the 2^ΔΔCT(Livak) method.

The subject of data set [4] is iNOS (inducible nitric oxide synthase). Nature of the data set: iNOS Western blot and Griess nitrite assay in ConA activated macrophages. The class given is cell-based, murine. The conditions noted are these: ConA induced. The protocol: To determine the anti-inflammatory potential of A-O complex, protein level of iNOS (inducible nitric oxide synthase) in cell lysates and nitrite level in cell culture supernatants were evaluated by Western blot and Griess assay respectively. iNOS antibody used was #2982 from Cell Signaling Technology. For determination of nitrite cell culture media and Griess reagent (5% phosphoric acid containing 0.1% NEDD, 1% sulfanilamide) were mixed and incubated in dark for 10 min at room temperature. The absorbance of the violet colored product and blank (cell culture media) was measured at 540 nm. The concentration of nitrite in the sample was determined from a sodium nitrite (NaNO2) standard curve.

For data set [5], the system named is ConA stimulated EOC20 microglia. The data set is described as follows: F-actin staining and qPCR in ConA stimulated EOC20 microglia. The class given is cell-based. The protocol: To determine the immunomodulatory effect of A-O complex, serum starved macrophages were exposed to the complex. Macrophages (1×10^6 cells) were serum starved for 30 min after which cells were exposed to A-O complex. After 1 hour, cells were washed with 1×PBS (pH 7.4) and harvested using cell dissociation solution. Then the cells were suspended in ice cold staining buffer (100 μl) and centrifuged at 1000 rpm for 5 min at 4° C. The cells were resuspended in 100 μl ice cold staining buffer for 10 min at 2-8° C. and pellet resuspended in 50 μl staining media. To this 2 μl of Fc block or anti-mouse CD16/CD32 was added for 10 mins and washed with staining buffer. The cells were resuspended in 50 μl of staining buffer and incubated with fluorescent-tagged CD36 antibody (e-biosciences) for 25-30 min on ice. The excess stain was removed by washing and pelleting down using staining buffer thrice by spinning and removal of staining buffer. The cell suspension was fixed 1:1 ratio (staining buffer:fixative) and analysed within 48 h in ARIA3 DIVA software version 6.1. Further, expression of MHC-II, and CD-36, was also determined in the microglial cells via qPCR. For this RNA extraction was performed using RNA extraction kit from Qiagen according to the manufacturer's instruction. cDNA synthesis was performed using cDNA synthesis kit from Qiagen. To perform qPCR, 10 ng cDNA (per well) was amplified using the Light Cycler 480 Sybergreen I Master reagent (Roche Diagnostics, Indianapolis, Ind.) and primers (commercially purchased from SABiosciences, Qiagen) in the Light Cycler 480 (Roche Diagnostics, Switzerland) under following cycling conditions: 3 min at 95° C., 15 sec at 95° C., 20 sec at 60° C., 25 sec at 72° C. for 40 cycles. Following amplification, fold changes in gene expression versus β-actin (reference) analysis was determined using the 2^ΔΔCT(Livak) method.
To determine the immunomodulatory effect of A-O complex in microglia, EOC20 microglial cells from ATCC (CRL-2469) was employed. The cells were cultured in high glucose Dulbecco's […] Essential Media (DMEM) containing 4 mM L-glutamine, 10% fetal bovine serum (FBS) and 20% LADMAC conditioned media. LADMAC media was prepared by growing 80% confluent LADMAC cell line from ATCC (CRL-2420) in alpha-minimal essential media supplemented with 10% FBS for 5 days. The spent supernatant was centrifuged at 1000 rpm for 10 min and the supernatant was filtered as used as LADMAC media. To determine the morphological changes in microglia upon exposure to A-O complex, F-actin confocal microscopy was performed. […]
Next, immunomodulatory effect of A-O complex on activated microglial cells was determined. […] The immunomodulatory effect was assessed via F-actin staining and qPCR.

Where [6] appears, read: ConA stimulated microglia, qPCR.

As for “A-O complex: peptide complex of 100 μM Abeta1-42 (SEQ ID NO: 1) and 3 ng Glu-OC (SEQ ID NO: 2), incubated at 37° C. for 4 hours”, the “intracellular LDH” value in data set [1] is recorded as “did not show any rise in intracellular LDH”. In data set [2], the “increase in mRNA level of Cd36” value is 8 fold and the “increase in mRNA level of Cd74 (MHC-II)” value is reported as 3 fold. In addition, in data set [3], the “cell surface protein expression of CD36 receptor” value was “increased cell surface protein expression”. Moreover, the iNOS protein expression entry in data set [4] (macrophage cell lysates, Western blot) is on record as “reduces the iNOS expression”. The “nitrite level in cell culture supernatants” value in data set [4] (macrophage cultures, Griess assay) was “reduction in the ConA induced nitrite levels”. Moreover, in data set [5] (setting [6]), the “mRNA level of Cd11b” value is on record as “normalized”, the “mRNA level of Cd36” value is listed as “induced” and the “mRNA level of Tnfa” value is “normalized”. In data set [5] (EOC20 microglia, ConA 30 mins then A-O complex 1 hour), the “microglia morphology (F-actin)” value is reported as “presence of cells with ramified process”.
